In patent US12338219B2, “Antimalarial agents” (Merck Sharp & Dohme LLC, priority 2019, dated 2025) one finds EC50 data, which are given here for 56 compounds.

This experiment deals with parasites (ring stage parasites, parasite growth). Briefly: Parasite LDH growth assay (Parasite Assay), antiparasite potency. To be noted: 72 hours growth, LDH readout, Table 3. The experiment is classed as cell-based. The procedure, abridged:
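Ring-stage culture was adjusted to 0.7% parasitemia and 2% haematocrit in bicarbonate-buffered RPMI-Hepes with heat-inactivated human serum and 0.5% albumax, then added to compound. Plates were incubated 72 h at 37 °C in gassed humidified boxes, frozen at −80 °C overnight and thawed, and growth was read by LDH assay.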

The term EC50 denotes the concentration needed to bring the measured effect to its halfway point. A high value points to a need for much substance. `CC[C@]1(C)CC(=O)N([C@@H](CCOC)[C@@H]2C[C@H]2C(=O)N[C@H]2C[C@H](C(F)(F)F)Oc3ccccc32)C(=N)N1` [Example 62A] yielded an EC50 (72 h) of 31 nM.

Take `CC[C@]1(C)CC(=O)N([C@H](CCOC)[C@@H]2C[C@H]2C(=O)N[C@H]2C[C@H](C(F)(F)F)Oc3ccccc32)C(=N)N1` [Example 62B]: a half-maximal response (72 h) (EC50) required 0.8 nM. This EC50 lies about 39-fold lower than the previous one.

Turning to `COCC[C@H]([C@@H]1C[C@H]1C(=O)N[C@@H]1CC(C)(C)Oc2cc(OC)ccc21)N1C(=N)NC(C)(C)CC1=O` [Example 70A], the EC50 (72 h) worked out at 77 nM.

`COCC[C@H]([C@@H]1C[C@H]1C(=O)N[C@H]1CC(C)(C)Oc2cc(OC)ccc21)N1C(=N)NC(C)(C)CC1=O` [Example 70B] had an EC50 (72 h) of 19 nM. For the compound `CC1(C)CC(=O)N(C[C@@H]2C[C@H]2C(=O)N[C@H]2CC(C)(C)Oc3ccc(F)cc32)C(=N)N1` [Example 71], under “72 h”, the EC50 came to 125 nM. The same measure, in the same setting: the same measure for `COCC[C@H]([C@@H]1C[C@H]1C(=O)N[C@@H]1CC(C)(C)Oc2ccc(F)cc21)N1C(=N)NC(C)(C)CC1=O` [Example 72A]: 11 nM; for `COCC[C@H]([C@@H]1C[C@H]1C(=O)N[C@H]1CC(C)(C)Oc2ccc(F)cc21)N1C(=N)NC(C)(C)CC1=O` [Example 72B]: 2.5 nM. Take `COc1cccc2c1[C@@H](NC(=O)[C@@H]1C[C@H]1CN1C(=N)NC(C)(C)CC1=O)CC(C)(C)O2` [Example 73]: the EC50 (72 h) was determined as 192 nM. Under “72 h”, `COCC[C@H]([C@@H]1C[C@H]1C(=O)N[C@@H]1CC(C)(C)Oc2cccc(OC)c21)N1C(=N)NC(C)(C)CC1=O` [Example 74A] displayed an EC50 of 33 nM. On to `COCC[C@H]([C@@H]1C[C@H]1C(=O)N[C@H]1CC(C)(C)Oc2cccc(OC)c21)N1C(=N)NC(C)(C)CC1=O` [Example 74B], for which the response (72 h) was half-maximal at 3.1 nM (EC50). This EC50 lies about 11-fold lower than the previous one. In the case of `CCC1(C)CC(NC(=O)[C@@H]2C[C@H]2[C@@H](CCOC)N2C(=N)NC(C)(C)CC2=O)c2ccccc2O1` (some centres unmarked) [Example 75A], where the note is “72 h”, the EC50 was 8.2 nM. Against the preceding compound, the EC50 is about 2.6-fold higher.

The compound `COCC[C@H]([C@@H]1C[C@H]1C(=O)NC1CC(C)(C)Oc2cc(F)ccc21)N1C(=N)NC(C)(C)CC1=O` (some centres unmarked) [Example 76A] had a concentration giving a half-maximal response (EC50) (72 h) of 17 nM.

`COCC[C@H]([C@@H]1C[C@H]1C(=O)NC1CC(C)(C)Oc2cc(F)ccc21)N1C(=N)NC(C)(C)CC1=O` (some centres unmarked) [Example 76B] yielded an EC50 of 15 nM. In other words, the double-digit nanomolar range.

On to `CC1(C)CC(=O)N([C@H](c2cccnc2)[C@@H]2C[C@H]2C(=O)NC2CC(C)(C)Oc3cc(F)ccc32)C(=N)N1` (some centres unmarked) [Example 77A], for which the concentration giving a half-maximal response (EC50) (72 h) was 1.7 nM. Compound `CC1(C)CC(=O)N([C@H](c2cccnc2)[C@@H]2C[C@H]2C(=O)NC2CC(C)(C)Oc3cc(F)ccc32)C(=N)N1` (some centres unmarked) [Example 77B] had an EC50 of 2.3 nM.

Take `CCC1(C)C[C@H](NC(=O)[C@@H]2C[C@H]2CN2C(=N)NC(C)(C)CC2=O)c2ccccc2O1` (some centres unmarked) [Example 78]: a half-maximal effect (72 h) (EC50) was put at 300 nM. `CC(C)C1(C)CC(NC(=O)[C@@H]2C[C@H]2CN2C(=N)NC(C)(C)CC2=O)c2ccccc2O1` (some centres unmarked) [Example 79A]: the EC50 (72 h) is 255 nM. Regarding `COCC[C@H]([C@@H]1C[C@H]1C(=O)N[C@H]1CC(C)(C)Oc2cc(C)ccc21)N1C(=N)NC(C)(C)CC1=O` [Example 83A], the response (72 h) was half-maximal at 6.6 nM (EC50). The same measure, in the same setting: the same measure for `COCC[C@H]([C@@H]1C[C@H]1C(=O)N[C@@H]1CC(C)(C)Oc2cc(C)ccc21)N1C(=N)NC(C)(C)CC1=O` [Example 83B]: 26 nM; for `Cc1ccc2c(c1)OC(C)(C)C[C@@H]2NC(=O)[C@@H]1C[C@H]1CN1C(=N)NC(C)(C)CC1=O` [Example 84]: 289 nM; for `Cc1ccc2c(c1)OC(C)(C)C[C@H]2NC(=O)[C@@H]1C[C@H]1[C@@H](c1cccnc1)N1C(=N)NC(C)(C)CC1=O` [Example 85A]: 2.4 nM. Still for that read-out and setting: the same measure for `Cc1ccc2c(c1)OC(C)(C)C[C@@H]2NC(=O)[C@@H]1C[C@H]1[C@@H](c1cccnc1)N1C(=N)NC(C)(C)CC1=O` [Example 85B]: 0.9 nM; for `CC1(C)CC(=O)N([C@H](c2cccnc2)[C@@H]2C[C@H]2C(=O)NC2CC(C)(C)Oc3cccc(F)c32)C(=N)N1` (some centres unmarked) [Example 86A]: 2.2 nM. `CC1(C)CC(=O)N([C@H](c2cccnc2)[C@@H]2C[C@H]2C(=O)NC2CC(C)(C)Oc3cccc(F)c32)C(=N)N1` (some centres unmarked) [Example 86B]: the response was half-maximal at 2.8 nM (EC50). With `CC1(C)CC(=O)N(C[C@@H]2C[C@H]2C(=O)N[C@H]2CC(C)(C)Oc3cccc(F)c32)C(=N)N1` [Example 87], the EC50 (72 h) is 160 nM. On to `COCC[C@H]([C@@H]1C[C@H]1C(=O)N[C@H]1CC(C)(C)Oc2cccc(F)c21)N1C(=N)NC(C)(C)CC1=O` [Example 88A], for which a half-maximal response (72 h) (EC50) required 5.2 nM. This EC50 lies about 31-fold lower than the previous one.

`COCC[C@H]([C@@H]1C[C@H]1C(=O)N[C@@H]1CC(C)(C)Oc2cccc(F)c21)N1C(=N)NC(C)(C)CC1=O` [Example 88B] yielded an EC50 (72 h) of 10 nM. Against the preceding compound, the EC50 is about 1.9-fold higher.

`COCC[C@H]([C@@H]1C[C@H]1C(=O)N[C@H]1CC(C)(C)Oc2cc(Cl)ccc21)N1C(=N)NC(C)(C)CC1=O` [Example 89A]: the midpoint of the response (72 h), the EC50, lay at 5.6 nM. Same read-out and setting: the same measure for `COCC[C@H]([C@@H]1C[C@H]1C(=O)N[C@@H]1CC(C)(C)Oc2cc(Cl)ccc21)N1C(=N)NC(C)(C)CC1=O` [Example 89B]: 22 nM; for `CC1(C)CC(=O)N(C[C@@H]2C[C@H]2C(=O)N[C@H]2CC(C)(C)Oc3cc(Cl)ccc32)C(=N)N1` [Example 90]: 225 nM; for `CC1(C)CC(=O)N([C@H](c2cccnc2)[C@@H]2C[C@H]2C(=O)N[C@H]2CC(C)(C)Oc3cc(Cl)ccc32)C(=N)N1` [Example 91A]: 0.8 nM.

`CC1(C)CC(=O)N([C@H](c2cccnc2)[C@@H]2C[C@H]2C(=O)N[C@@H]2CC(C)(C)Oc3cc(Cl)ccc32)C(=N)N1` [Example 91B] showed an EC50 (72 h) of 2.7 nM. This EC50 lies about 3.4-fold higher than the previous one. Still for that read-out and setting: the same measure for `CCC1(CC)CC(NC(=O)[C@@H]2C[C@H]2[C@@H](CCOC)N2C(=N)NC(C)(C)CC2=O)c2ccccc2O1` (some centres unmarked) [Example 92A]: 7.6 nM.

Consider `CCC1(CC)CC(NC(=O)[C@@H]2C[C@H]2[C@@H](CCOC)N2C(=N)NC(C)(C)CC2=O)c2ccccc2O1` (some centres unmarked) [Example 92B], for which the EC50 was found to be 7.2 nM. With `CC1(C)CC(=O)N([C@H](c2cccnc2)[C@@H]2C[C@H]2C(=O)NC2CC(C)(C)Oc3c(F)cccc32)C(=N)N1` (some centres unmarked) [Example 93A], the EC50 (72 h) was found to be 3.3 nM. This lies in the single-digit nanomolar range. As to `CC1(C)CC(=O)N([C@H](c2cccnc2)[C@@H]2C[C@H]2C(=O)NC2CC(C)(C)Oc3c(F)cccc32)C(=N)N1` (some centres unmarked) [Example 93B], it took 2.4 nM to reach a half-maximal effect (EC50). Take `CC1(C)CC(=O)N([C@H](c2cccnc2)[C@@H]2C[C@H]2C(=O)NC2CC(C)(C)Oc3c(Cl)cc(Cl)cc32)C(=N)N1` (some centres unmarked) [Example 94A]: a half-maximal response (72 h) (EC50) required 0.9 nM. Where the note is “72 h”, `CC1(C)CC(=O)N(C[C@@H]2C[C@H]2C(=O)N[C@H]2CC(C)(C)Oc3ccc(Cl)cc32)C(=N)N1` [Example 95] returned an EC50 of 110 nM.

For `COc1cccc2c1C(NC(=O)[C@@H]1C[C@H]1[C@@H](c1cccnc1)N1C(=N)NC(C)(C)CC1=O)CC(C)(C)O2` (some centres unmarked) [Example 96A], the half-maximal effective concentration (EC50) (72 h) was determined as 2.7 nM. Against the preceding compound, the EC50 is about 41-fold lower. `COc1cccc2c1C(NC(=O)[C@@H]1C[C@H]1[C@@H](c1cccnc1)N1C(=N)NC(C)(C)CC1=O)CC(C)(C)O2` (some centres unmarked) [Example 96B] showed an EC50 of 3.3 nM. This counts as single-digit nanomolar.

For the setting “72 h”, `CC1(C)CC(=O)N(C[C@@H]2C[C@H]2C(=O)NC2CC(C)(C)Oc3c(Cl)cc(Cl)cc32)C(=N)N1` (some centres unmarked) [Example 97A] registered an EC50 of 180 nM.

Compound `CC1(C)CC(=O)N(C[C@@H]2C[C@H]2C(=O)NC2CC(C)(C)Oc3c(Cl)cc(Cl)cc32)C(=N)N1` (some centres unmarked) [Example 97B] displayed an EC50 of 220 nM.

In turn, `CC1(C)CC(=O)N(C[C@@H]2C[C@H]2C(=O)N[C@H]2CC(C)(C)Oc3c(C(F)(F)F)ccc(F)c32)C(=N)N1` [Example 99] yielded an EC50 (72 h) of 130 nM. As to `CC1(C)CC(=O)N(C[C@@H]2C[C@H]2C(=O)N[C@H]2CC(C)(C)Oc3ccc(C(F)(F)F)cc32)C(=N)N1` [Example 100], the EC50 (72 h) was 170 nM.

Regarding `COCC[C@H]([C@@H]1C[C@H]1C(=O)N[C@H]1CC(C)(C)Oc2ccc(Cl)cc21)N1C(=N)NC(C)(C)CC1=O` [Example 101], the midpoint of the response (72 h), the EC50, lay at 2.9 nM. In turn, `CC[C@]1(C)CC(=O)N([C@H](c2cncc(F)c2)[C@@H]2C[C@H]2C(=O)N[C@@H]2c3ccccc3OCC2(C)C)C(=N)N1` [Example 102A] came in with an EC50 (72 h) of 0.8 nM. Compared with the last compound, the EC50 is about 3.6-fold lower. Turning to `CC[C@]1(C)CC(=O)N([C@@H](c2cncc(F)c2)[C@@H]2C[C@H]2C(=O)N[C@@H]2c3ccccc3OCC2(C)C)C(=N)N1` [Example 102B], a half-maximal effect (72 h) (EC50) was put at 2.5 nM. This EC50 lies about 3.1-fold higher than the previous one.

In the case of `COCC[C@H]([C@@H]1C[C@H]1C(=O)NC1CC(C)(C)Oc2c(Cl)cc(Cl)cc21)N1C(=N)NC(C)(C)CC1=O` (some centres unmarked) [Example 106A], for the setting “72 h”, the 50% effective concentration (EC50) is 7.4 nM. Compared with the last compound, the EC50 is about 3-fold higher. Compound `COCC[C@H]([C@@H]1C[C@H]1C(=O)NC1CC(C)(C)Oc2c(Cl)cc(Cl)cc21)N1C(=N)NC(C)(C)CC1=O` (some centres unmarked) [Example 106B] gave an EC50 of 10 nM. For `COCC[C@H]([C@@H]1C[C@H]1C(=O)N[C@H]1CC(C)(C)Oc2cccc(OC(F)(F)F)c21)N1C(=N)NC(C)(C)CC1=O` [Example 107A], a half-maximal effect (72 h) (EC50) was put at 2.1 nM. Same read-out and setting: the same measure for `COCC[C@H]([C@@H]1C[C@H]1C(=O)N[C@@H]1CC(C)(C)Oc2cccc(OC(F)(F)F)c21)N1C(=N)NC(C)(C)CC1=O` [Example 107B]: 11 nM. In turn, `COCC[C@H]([C@@H]1C[C@H]1C(=O)N[C@@H]1CC(C)(C)Oc2ccc(C(F)(F)F)cc21)N1C(=N)NC(C)(C)CC1=O` [Example 110A] had an EC50 (72 h) of 21 nM. On the same count and under the same terms, the same measure for `COCC[C@H]([C@@H]1C[C@H]1C(=O)N[C@H]1CC(C)(C)Oc2ccc(C(F)(F)F)cc21)N1C(=N)NC(C)(C)CC1=O` [Example 110B]: 7.2 nM; for `COCC[C@H]([C@@H]1C[C@H]1C(=O)NC1CC(C)(C)Oc2c(F)cccc21)N1C(=N)NC(C)(C)CC1=O` (some centres unmarked) [Example 111A]: 24 nM. In turn, `COCC[C@H]([C@@H]1C[C@H]1C(=O)NC1CC(C)(C)Oc2c(F)cccc21)N1C(=N)NC(C)(C)CC1=O` (some centres unmarked) [Example 111B] had a 50% effective concentration (EC50) of 15 nM. `COCC[C@H]([C@@H]1C[C@H]1C(=O)NC1CC(C)(C)Oc2c(Cl)cccc21)N1C(=N)NC(C)(C)CC1=O` (some centres unmarked) [Example 112A] registered an EC50 (72 h) of 18 nM. This lies in the double-digit nanomolar range.
